# Measurements taken from US20140350081A1, “INSECT G-COUPLED RECEPTORS USEFUL AS TARGETS FOR INSECTICIDES AND COMPOUNDS AND REAGENTS IDENTIFIED USING THE SAME” (priority 2011, published 2014).
# Structures can show the parent of a compound that is named as a salt. Where two headings read alike, the source gives them in different places.
# What was measured:
# AaDOP2 = AaDOP2 (Aedes aegypti, UniProt H6D5H2); test: HTRF cAMP accumulation concentration response assay (Cisbio Dynamic 2); type: cell-based; details: for IC50 ± S.E.M. (nM), HTRF cAMP assay: AaDOP2 expressing cells in the presence of dopamine, No Inhibition = <10% inhibition at 3 μM test compound
# Isdop2 = Isdop2 (Ixodes scapularis, UniProt A0ACM8DGL0); test: cell-based; details: for inhibition at 10 µM: read-out: % Inhibition (of response to dopamine), Isdop2 screen
# Ae. aegypti L3 larvae = test: whole plant or invertebrate; details: Aedes aegypti
# [1] = in vitro Concentration Response Curve assay, n = 2, relative to control antagonist Amitriptyline, read-out: Avg IC50
# [2] = 10 μM compound, footnote 3 mM dopamine
# [3] = 24 h, read-out: Toxicity to Aedes aegypti larvae (mortality) 24 hours, 400 μM, L3 larvae, three independent experiments
# [4] = 48 h, read-out: Toxicity to Aedes aegypti larvae (mortality) 48 hours, 400 μM, L3 larvae, three independent experiments
# [5] = 72 h, read-out: Toxicity to Aedes aegypti larvae (mortality) 72 hours, 400 μM, L3 larvae, three independent experiments
# [6] = 0.5 h, read-out: percent mortality 0.5 hr, 400 uM, L3 larvae, value for this scoring time
# [7] = 1 h, read-out: percent mortality 1 hr, 400 uM, L3 larvae, per scoring time
# [8] = 2 h, read-out: percent mortality 2 hr, 400 uM, L3 larvae, per scoring time
# [9] = 3 h, read-out: percent mortality 3 hr, 400 uM, L3 larvae, per scoring time
# [10] = 4 h, read-out: percent mortality 4 hr, 400 uM, L3 larvae, per scoring time
# [11] = 24 h, read-out: percent mortality 24 hr, 400 uM, L3 larvae, per scoring time
# [12] = 48 h, read-out: percent mortality 48 hr, 400 uM, L3 larvae, per scoring time
# [13] = 72 h, read-out: Cumulative % Mortality (72 hrs), 400 uM, L3 larvae
# [14] = 72 h, read-out: percent mortality 72 hr, 400 uM, L3 larvae, per scoring time
# [15] = […], read-out: percent mortality […], 400 uM, L3 larvae, per scoring time
# Isdop2, sequence (A0ACM8DGL0 entry or part of it): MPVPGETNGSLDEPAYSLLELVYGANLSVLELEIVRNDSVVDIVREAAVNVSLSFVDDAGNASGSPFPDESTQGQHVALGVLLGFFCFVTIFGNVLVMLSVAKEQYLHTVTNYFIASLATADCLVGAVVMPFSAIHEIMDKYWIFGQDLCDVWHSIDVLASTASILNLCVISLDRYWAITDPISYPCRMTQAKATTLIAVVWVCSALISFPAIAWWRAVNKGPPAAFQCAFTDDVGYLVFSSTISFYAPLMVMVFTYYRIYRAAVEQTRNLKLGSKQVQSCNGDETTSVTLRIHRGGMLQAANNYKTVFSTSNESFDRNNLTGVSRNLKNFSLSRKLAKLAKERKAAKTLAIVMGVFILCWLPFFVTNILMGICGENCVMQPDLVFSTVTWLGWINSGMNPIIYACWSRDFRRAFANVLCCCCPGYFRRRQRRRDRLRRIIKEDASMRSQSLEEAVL
# AaDOP2, sequence (H6D5H2 entry or part of it): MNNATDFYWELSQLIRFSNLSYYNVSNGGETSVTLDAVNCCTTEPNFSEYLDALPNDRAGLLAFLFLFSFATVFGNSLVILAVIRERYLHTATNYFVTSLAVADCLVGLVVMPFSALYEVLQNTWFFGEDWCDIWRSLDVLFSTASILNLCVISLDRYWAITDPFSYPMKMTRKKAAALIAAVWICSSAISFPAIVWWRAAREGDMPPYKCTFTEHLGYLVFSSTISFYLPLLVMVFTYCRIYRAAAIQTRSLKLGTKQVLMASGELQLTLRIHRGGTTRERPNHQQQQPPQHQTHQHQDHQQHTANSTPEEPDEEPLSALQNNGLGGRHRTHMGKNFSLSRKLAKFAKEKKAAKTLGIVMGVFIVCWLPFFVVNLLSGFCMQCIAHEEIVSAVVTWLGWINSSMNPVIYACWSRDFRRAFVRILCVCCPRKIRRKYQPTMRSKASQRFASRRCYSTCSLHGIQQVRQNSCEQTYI
compound,measurement,setting,value
"CC(COc1ccccc1Cc1ccccc1)N1CCCCC1 (racemic) [Benproperine phosphate, (RS)-1-[2-(2-benzylphenoxy)-1-methylethyl]piperidine]",IC50,AaDOP2; [1],4.51 µM
"CN1CCN2c3ccccc3Cc3ccccc3C2C1 (racemic) [Mianserin, ((±)-2-methyl-1,2,3,4,10,14b-hexahydrodibenzo[c,f]pyrazino [1,2-a]azepine)]",inhibition at 10 µM,Isdop2,87%
"CSc1ccc2c(c1)N(CCC1CCCCN1C)c1ccccc1S2 (racemic) [Thioridazine, 10-{2-[(RS)-1-Methylpiperidin-2-yl]ethyl}-2-methylsulfanylphenothiazine]",inhibition at 10 µM,Isdop2,85%
"COC1=C(OC)C(=O)c2ccccc2C1=O [2,3-Dimethoxy-1,4-naphthoquinone]",inhibition at 10 µM,Isdop2,68%
CN1[C@@H]2CC[C@H]1C[C@@H](OC(c1ccccc1)c1ccccc1N)C2 (stereo partly shown) [Aminobenztropine],inhibition at 10 µM,Isdop2,71%
Cc1ccc(/N=C/N(C)/C=N/c2ccc(C)cc2C)c(C)c1 [Amitraz],"IC50 ± S.E.M. (nM), HTRF cAMP assay",AaDOP2,No Inhibition^a
"Clc1ccc2c(c1)C(N1CCNCC1)=Nc1ccccc1O2 [Amoxapine, 2-Chloro-11-(piperazin-1-yl)dibenzo[b,f][1,4]oxazepine]",inhibition at 10 µM,Isdop2,92%
O=c1cc(-c2ccc(O)cc2)oc2cc(O)cc(O)c12 [Apigenin],inhibition at 10 µM,Isdop2,98%
"CN1CCCC(n2nc(Cc3ccc(Cl)cc3)c3ccccc3c2=O)CC1 (stereo not shown) [Azelastine HCl, 4-[(4-chlorophenyl)methyl]-2-(1-methylazepan-4-yl)phthalazin-1-one hydrochloride]",IC50,AaDOP2,47.5 µM
COc1ccccc1N1CCN(CCCCNC(=O)c2ccc3ccccc3c2)CC1 [BP 897],inhibition at 10 µM,Isdop2,71%
O=C1CC2(CCCC2)CC(=O)N1CCCCN1CCN(c2ncccn2)CC1 [Buspirone],"IC50 ± S.E.M. (nM), HTRF cAMP assay",AaDOP2,No Inhibition^a
CCn1cnc2c(Nc3cccc(Cl)c3)nc(N[C@@H]3CCCC[C@@H]3N)nc21.Cl [CGP-74514A hydrochloride],"% Inhibition (of response to dopamine), Isdop2 screen",Isdop2,98%
"COc1ccccc1OCCNCC(O)COc1cccc2[nH]c3ccccc3c12 (stereo not shown) [Carvedilol, 1-(9H-Carbazol-4-yloxy)-3-[[2-(2-methoxyphenoxy)ethyl]amino]-2-propanol]",IC50,"AaDOP2; Avg IC50 (μM), in vitro Concentration Response Curve assay, n = 2, relative to control antagonist Amitriptyline",8.5 µM
"CCC(=O)Nc1ccc(Nc2nc(C)cc(Nc3ccccc3)n2)cc1 [Compound G869-0096, N-(4-((4-methyl-6-(phenylamino)pyrimidin-2-yl)amino)phenyl)propionamide]",IC50,AaDOP2; [1],4.74 µM
"CCCC(=O)Nc1ccc(Nc2nc(C)cc(Nc3ccccc3)n2)cc1 [Compound G869-0097, N-(4-((4-methyl-6-(phenylamino)pyrimidin-2-yl)amino)phenyl)butyramide]",IC50,AaDOP2; [1],6.05 µM
"Cc1cc(Nc2ccccc2)nc(Nc2ccc(NC(=O)C(C)C)cc2)n1 [Compound G869-0098, N-(4-((4-methyl-6-(phenylamino)pyrimidin-2-yl)amino)phenyl)isobutyramide]",IC50,AaDOP2; [1],3.1 µM
CN(C)CCC=C1c2ccccc2C=Cc2ccccc21 [Cyclobenzaprine],inhibition at 10 µM,Isdop2,95%
CN1CCC(=C2c3ccccc3C=Cc3ccccc32)CC1 [Cyproheptadine],inhibition at 10 µM,Isdop2,93%
OC[C@H]1O[C@@H](n2cnc3ccccc32)[C@H](O)[C@@H]1O [D-ribofuranosylbenzimidazole],"% Inhibition (of response to dopamine), Isdop2 screen",Isdop2; [2],82%
O=c1c(-c2ccc(O)cc2)coc2cc(O)ccc12 [Daidzein],inhibition at 10 µM,Isdop2,77%
Cc1cc(N)c2ccccc2[n+]1CCCCCCCCCC[n+]1c(C)cc(N)c2ccccc21 [Dequalinium dichloride],inhibition at 10 µM,Isdop2,75%
C[C@@H]1O[C@@H](O[C@H]2C[C@@H](O)[C@]3(CO)[C@H]4[C@H](O)C[C@]5(C)[C@@H]([C@@H]6COC(=O)C6)CC[C@]5(O)[C@@H]4CC[C@]3(O)C2)[C@H](O)[C@H](O)[C@H]1O [Dihydroouabain],"% Inhibition (of response to dopamine), Isdop2 screen",Isdop2; [2],76%
c1ccc2c(c1)[I+]c1ccccc1-2 [Diphenyleneiodonium chloride],inhibition at 10 µM,Isdop2,78%
CNCCC(Oc1ccc(C(F)(F)F)cc1)c1ccccc1 (stereo not shown) [Fluoxetine],mortality at 400 µM,Ae. aegypti L3 larvae; [3],43%
same,mortality at 400 µM,Ae. aegypti L3 larvae; [4],53%
same,mortality at 400 µM,Ae. aegypti L3 larvae; [5],53%
"OCCN1CCN(CCCN2c3ccccc3Sc3ccc(C(F)(F)F)cc32)CC1 [Fluphenazine, 2-[4-[3-[2-(trifluoromethyl)-10H-phenothiazin-10-yl]propyl]piperazin-1-yl]ethanol]",inhibition at 10 µM,Isdop2,79%
O=C1Nc2ccc(I)cc2/C1=C/c1cc(Br)c(O)c(Br)c1 [GW5074],"% Inhibition (of response to dopamine), Isdop2 screen",Isdop2,81%
O=c1c(-c2ccc(O)cc2)coc2cc(O)cc(O)c12 [Genistein],inhibition at 10 µM,Isdop2,71%
CC1CNCCN1S(=O)(=O)c1cccc2cnccc12.Cl.Cl (stereo not shown) [H-7 dihydrochloride],"% Inhibition (of response to dopamine), Isdop2 screen",Isdop2,73%
O=C1Nc2ccccc2/C1=C1/Nc2ccccc2/C1=N\O [Indirubin-3′-oxime],"% Inhibition (of response to dopamine), Isdop2 screen",Isdop2,93%
O=C(c1ccc(F)cc1)C1CCN(CCn2c(=O)[nH]c3ccccc3c2=O)CC1 [Ketanserin],mortality at 400 µM,Ae. aegypti L3 larvae; [6],0%
same,mortality at 400 µM,Ae. aegypti L3 larvae; [7],0%
same,mortality at 400 µM,Ae. aegypti L3 larvae; [8],0%
same,mortality at 400 µM,Ae. aegypti L3 larvae; [9],0%
same,mortality at 400 µM,Ae. aegypti L3 larvae; [10],0%
same,mortality at 400 µM,Ae. aegypti L3 larvae; [3],0%
same,mortality at 400 µM,Ae. aegypti L3 larvae; [11],0%
same,mortality at 400 µM,Ae. aegypti L3 larvae; [4],0%
same,mortality at 400 µM,Ae. aegypti L3 larvae; [12],0%
same,mortality at 400 µM,Ae. aegypti L3 larvae; [13],0%
same,mortality at 400 µM,Ae. aegypti L3 larvae; [5],0%
same,mortality at 400 µM,Ae. aegypti L3 larvae; [14],0%
same,mortality at 400 µM,Ae. aegypti L3 larvae; [15],0%
COc1ccccc1N1CCN(CCCCN2C(=O)c3ccccc3C2=O)CC1 [NAN-190 hydrobromide],inhibition at 10 µM,Isdop2,69%
C[C@@H]1O[C@@H](O[C@H]2C[C@@H](O)[C@]3(CO)[C@H]4[C@H](O)C[C@]5(C)[C@@H](C6=CC(=O)OC6)CC[C@]5(O)[C@@H]4CC[C@]3(O)C2)[C@H](O)[C@H](O)[C@H]1O [Ouabain],inhibition at 10 µM,Isdop2,86%
"COc1cccc(-c2cc(=O)c3ccccc3o2)c1N [PD 98,059]","% Inhibition (of response to dopamine), Isdop2 screen",Isdop2; [2],87%
NC(=Nc1ccccc1)NC(=O)c1nc(Cl)c(N)nc1N [Phenamil methanesulfonate],inhibition at 10 µM,Isdop2,72%
CN1CCN(CC(=O)N2c3ccccc3C(=O)Nc3cccnc32)CC1 [Pirenzepine],mortality at 400 µM,Ae. aegypti L3 larvae; [6],0%
same,mortality at 400 µM,Ae. aegypti L3 larvae; [7],0%
same,mortality at 400 µM,Ae. aegypti L3 larvae; [8],0%
same,mortality at 400 µM,Ae. aegypti L3 larvae; [9],0%
same,mortality at 400 µM,Ae. aegypti L3 larvae; [10],0%
same,mortality at 400 µM,Ae. aegypti L3 larvae; [3],0%
same,mortality at 400 µM,Ae. aegypti L3 larvae; [11],0%
same,mortality at 400 µM,Ae. aegypti L3 larvae; [4],0%
same,mortality at 400 µM,Ae. aegypti L3 larvae; [12],0%
same,mortality at 400 µM,Ae. aegypti L3 larvae; [13],0%
same,mortality at 400 µM,Ae. aegypti L3 larvae; [5],0%
same,mortality at 400 µM,Ae. aegypti L3 larvae; [14],0%
same,mortality at 400 µM,Ae. aegypti L3 larvae; [15],0%
"CN1CCN(CCCN2c3ccccc3Sc3ccc(Cl)cc32)CC1 [Prochlorperazine, 2-chloro-10-[3-(4-methyl-1-piperazinyl)propyl]-10H-phenothiazine]",inhibition at 10 µM,Isdop2,86%
CCN(CC)C(=O)N[C@H]1C[C@@H]2c3cccc4[nH]cc(c34)C[C@H]2N(C)C1 [R(+)-Terguride],"% Inhibition (of response to dopamine), Isdop2 screen",Isdop2,68%
"Cc1nc2n(c(=O)c1CCN1CCC(c3noc4cc(F)ccc34)CC1)CCCC2 [Risperidone, 4-[2-[4-(6-fluorobenzo[d]isoxazol-3-yl)-1-piperidyl]ethyl]-3-methyl-2,6-diazabicyclo[4.4.0]deca-1,3-dien-5-one]",inhibition at 10 µM,Isdop2,100%
CC[C@H](CO)Nc1nc(NCc2ccccc2)c2ncn(C(C)C)c2n1 [Roscovitine],inhibition at 10 µM,Isdop2,91%
C=C(C)[C@H]1Cc2c(ccc3c2O[C@@H]2COc4cc(OC)c(OC)cc4[C@@H]2C3=O)O1 [Rotenone],inhibition at 10 µM,Isdop2,77%
CC(=O)c1c(O)c(C)c(O)c(Cc2c(O)c3c(c(C(=O)/C=C/c4ccccc4)c2O)OC(C)(C)C=C3)c1O [Rottlerin],inhibition at 10 µM,Isdop2,97%
Cc1ccc(O)c(N=Nc2ccccc2)n1 [SIB 1757],"% Inhibition (of response to dopamine), Isdop2 screen",Isdop2; [2],100%
CN1CCc2cccc(Cl)c2CC1 [SKF86466],"% Inhibition (of response to dopamine), Isdop2 screen",Isdop2; [2],86%
Br.CN1CCc2cc(O)c(O)cc2C(c2ccccc2)C1 (stereo not shown) [SKF 75670 hydrobromide],"% Inhibition (of response to dopamine), Isdop2 screen",Isdop2,68%
C[n+]1cc2c3c(ccc2c2ccc4cc5c(cc4c21)OCO5)OCO3 [Sanguinarine chloride],inhibition at 10 µM,Isdop2,100%
"CN1CCN(CCCN2c3ccccc3Sc3ccc(C(F)(F)F)cc32)CC1 [Trifluoperazine, 10-[3-(4-methylpiperazin-1-yl)propyl]-2-(trifluoromethyl)-10H-phenothiazine]",inhibition at 10 µM,Isdop2,76%
CC(C)(C)c1cc(C=C(C#N)C#N)cc(C(C)(C)C)c1O [Tyrphostin A9],"% Inhibition (of response to dopamine), Isdop2 screen",Isdop2; [2],87%
CC(C)(C)c1cc(/C=C(\C#N)C(N)=S)cc(C(C)(C)C)c1O [Tyrphostin AG 879],"% Inhibition (of response to dopamine), Isdop2 screen",Isdop2,75%
O=C(N[C@@H](Cc1ccccc1)C(=O)CCl)OCc1ccccc1 [Z-L-Phe chloromethyl ketone],"% Inhibition (of response to dopamine), Isdop2 screen",Isdop2,90%
(±)-Butaclamol hydrochloride,"% Inhibition (of response to dopamine), Isdop2 screen",Isdop2,86%
